Where “and” joins values, the source holds several entries; their conditions need not be identical. Equal entries are not always repeated. Inconclusive results and toxic doses are left out.
System: BDF1 mice, Lewis lung carcinoma iv, survival T/C
Test: NCI In Vivo Anticancer Drug Screen. Data for tumor model Lewis Lung Carcinoma (intravenous) in B6D2F1 (BDF1) mice
Settings: endpoint: median survival time, higher = longer survival
Protocol: The antitumor activity of compounds was measured in mice bearing transplantable tumors. Survival or tumor size were measured and the results are expressed as the measurement made in the treated group (T) divided by the measurement made in the vehicle treated control group (C). The tumor model used in this assay is Lewis Lung Carcinoma (intravenous) in B6D2F1 (BDF1) mice

[1] = dose: 25.0 mg/kg/injection, schedule: Q01DX009 (ip), vehicle: saline with Tween-80
[2] = dose: 50.0 mg/kg/injection, schedule: Q01DX009 (ip), vehicle: saline with Tween-80
[3] = dose: 100.0 mg/kg/injection, schedule: Q01DX009 (ip), vehicle: saline with Tween-80
[4] = dose: 12.5 mg/kg/injection, schedule: Q01DX009 (ip), vehicle: saline
[5] = dose: 50.0 mg/kg/injection, schedule: Q01DX009 (ip), vehicle: saline
[6] = dose: 100.0 mg/kg/injection, schedule: Q01DX009 (ip), vehicle: saline
[7] = dose: 0.5 mg/kg/injection, schedule: Q01DX009 (ip), vehicle: saline
[8] = dose: 1.0 mg/kg/injection, schedule: Q01DX009 (ip), vehicle: saline
[9] = dose: 2.0 mg/kg/injection, schedule: Q01DX009 (ip), vehicle: saline

CCN1/C(=C/C=C/C=C\C=C\c2sc3ccc4ccccc4c3[n+]2CC)Sc2ccc3ccccc3c21
T/C (dose: 0.08 mg/kg/injection, schedule: Q01DX009 (ip), vehicle: saline with Tween-80): 101 % of control | T/C (dose: 0.16 mg/kg/injection, schedule: Q01DX009 (ip), vehicle: saline with Tween-80): 104 % of control | T/C (dose: 0.31 mg/kg/injection, schedule: Q01DX009 (ip), vehicle: saline with Tween-80): 98 % of control | T/C (dose: 0.62 mg/kg/injection, schedule: Q01DX009 (ip), vehicle: saline with Tween-80): 104 % of control | T/C (dose: 1.25 mg/kg/injection, schedule: Q01DX009 (ip), vehicle: saline with Tween-80): 105 % of control | T/C (dose: 2.5 mg/kg/injection, schedule: Q01DX009 (ip), vehicle: saline with Tween-80): 105 % of control

CC12CC(C(=O)O)C3(O)CC(C)(C1)CC(C)(C2)C3 (centres undefined) (tested in a mixture with another compound)
T/C (dose: 12.5 mg/kg/injection, schedule: Q01DX009 (ip), vehicle: saline with Tween-80): 99 % of control | T/C [1]: 86 % of control | T/C [2]: 89 % of control | T/C [3]: 94 % of control | T/C (dose: 200.0 mg/kg/injection, schedule: Q01DX009 (ip), vehicle: saline with Tween-80): 99 % of control

COc1ccc2ccccc2c1C1NC(=O)c2ccccc2N1 (centres undefined)
T/C (dose: 12.5 mg/kg/injection, schedule: Q01DX009 (ip), vehicle: Klucel (hydroxypropylcellulose) (HPC)): 90 % of control | T/C (dose: 25.0 mg/kg/injection, schedule: Q01DX009 (ip), vehicle: Klucel (hydroxypropylcellulose) (HPC)): 92 % of control | T/C (dose: 50.0 mg/kg/injection, schedule: Q01DX009 (ip), vehicle: Klucel (hydroxypropylcellulose) (HPC)): 92 % of control | T/C (dose: 100.0 mg/kg/injection, schedule: Q01DX009 (ip), vehicle: Klucel (hydroxypropylcellulose) (HPC)): 96 % of control | T/C (dose: 200.0 mg/kg/injection, schedule: Q01DX009 (ip), vehicle: Klucel (hydroxypropylcellulose) (HPC)): 98 % of control | T/C (dose: 400.0 mg/kg/injection, schedule: Q01DX009 (ip), vehicle: Klucel (hydroxypropylcellulose) (HPC)): 102 % of control

CC(=O)OC/C=C(C)/C=C/C=C(C)/C=C/C1=C(C)CCCC1(C)C
T/C (dose: 6.25 mg/kg/injection, schedule: Q01DX005 (ip), vehicle: saline with Tween-80): 115 % of control | T/C (dose: 12.5 mg/kg/injection, schedule: Q01DX005 (ip), vehicle: saline with Tween-80): 91 % of control | T/C (dose: 25.0 mg/kg/injection, schedule: Q01DX005 (ip), vehicle: saline with Tween-80): 97 % of control | T/C (dose: 50.0 mg/kg/injection, schedule: Q01DX005 (ip), vehicle: saline with Tween-80): 97 % of control | T/C (dose: 100.0 mg/kg/injection, schedule: Q01DX005 (ip), vehicle: saline with Tween-80): 98 % of control | T/C (dose: 200.0 mg/kg/injection, schedule: Q01DX005 (ip), vehicle: saline with Tween-80): 104 % of control

OCCN1CCN(CC/C=C2/c3ccccc3Sc3ccc(Cl)cc32)CC1
T/C (dose: 0.78 mg/kg/injection, schedule: Q01DX009 (ip), vehicle: saline): 102 % of control | T/C (dose: 1.56 mg/kg/injection, schedule: Q01DX009 (ip), vehicle: saline): 111 % of control | T/C (dose: 3.12 mg/kg/injection, schedule: Q01DX009 (ip), vehicle: saline): 98 % of control | T/C (dose: 6.25 mg/kg/injection, schedule: Q01DX009 (ip), vehicle: saline): 101 % of control | T/C [4]: 100 % of control

CCCCCC(O)C1C(=O)OC(C)C(O)/C=C/C=C/C=C/C=C\C=C(\C)C(O)CC(O)CC(O)CC(O)CC(O)CC(O)CC1O (centres undefined)
T/C (dose: 3.12 mg/kg/injection, schedule: Q01DX009 (ip), vehicle: distilled water + alcohol): 103 % of control | T/C (dose: 6.25 mg/kg/injection, schedule: Q01DX009 (ip), vehicle: distilled water + alcohol): 96 % of control | T/C (dose: 12.5 mg/kg/injection, schedule: Q01DX009 (ip), vehicle: distilled water + alcohol): 106 % of control | T/C (dose: 25.0 mg/kg/injection, schedule: Q01DX009 (ip), vehicle: distilled water + alcohol): 96 % of control

COc1cc(NS(C)(=O)=O)ccc1Nc1c2ccccc2nc2ccccc12
T/C (dose: 3.6 mg/kg/injection, schedule: Q04DX003 (ip), vehicle: clinical formulation): 104 % of control | T/C (dose: 6.0 mg/kg/injection, schedule: Q04DX003 (ip), vehicle: clinical formulation): 108 % of control | T/C (dose: 16.7 mg/kg/injection, schedule: Q04DX003 (ip), vehicle: clinical formulation): 121 % of control

O=C(O)CP(=O)(O)O
T/C [5]: 96 % of control | T/C [6]: 96 % of control | T/C (dose: 200.0 mg/kg/injection, schedule: Q01DX009 (ip), vehicle: saline): 152 % of control

COc1cccc2c1C(=O)c1c(O)c3c(c(O)c1C2=O)C[C@@](O)(C(=O)CO)C[C@@H]3OC1CC(N)C(O)C(C)O1 (some centres undefined)
T/C (dose: 0.12 mg/kg/injection, schedule: Q01DX009 (ip), vehicle: saline): 97 % of control | T/C (dose: 0.25 mg/kg/injection, schedule: Q01DX009 (ip), vehicle: saline): 99 % of control and 110 % of control and 90 % of control | T/C [7]: 99 % of control and 106 % of control and 113 % of control | T/C (dose: 0.5 mg/kg/injection, schedule: Q04DX003 (ip), vehicle: saline): 100 % of control | T/C (dose: 0.88 mg/kg/injection, schedule: Q01DX009 (ip), vehicle: saline): 107 % of control | T/C [8]: 100 % of control and 111 % of control and 280 % of control | T/C (dose: 1.0 mg/kg/injection, schedule: Q04DX003 (ip), vehicle: saline): 92 % of control and 95 % of control | T/C (dose: 1.26 mg/kg/injection, schedule: Q01DX009 (ip), vehicle: saline): 121 % of control | T/C (dose: 1.92 mg/kg/injection, schedule: Q04DX003 (ip), vehicle: saline): 111 % of control | T/C (dose: 2.0 mg/kg/injection, schedule: Q01DX001 (ip), vehicle: saline): 112 % of control and 122 % of control | T/C [9]: 112 % of control and 115 % of control | T/C (dose: 2.0 mg/kg/injection, schedule: Q04DX003 (ip), vehicle: saline): 96 % of control and 110 % of control | T/C (dose: 2.57 mg/kg/injection, schedule: Q01DX009 (ip), vehicle: saline): 197 % of control | T/C (dose: 3.6 mg/kg/injection, schedule: Q01DX001 (im), vehicle: water): 113 % of control | T/C (dose: 3.9 mg/kg/injection, schedule: Q04DX003 (ip), vehicle: saline): 225 % of control | T/C (dose: 4.0 mg/kg/injection, schedule: Q01DX001 (ip), vehicle: saline): 114 % of control | T/C (dose: 4.0 mg/kg/injection, schedule: Q04DX003 (ip), vehicle: saline): 101 % of control and 105 % of control | T/C (dose: 4.8 mg/kg/injection, schedule: Q01DX001 (iv), vehicle: saline): 114 % of control and 115 % of control and 123 % of control | T/C (dose: 5.6 mg/kg/injection, schedule: Q04DX003 (ip), vehicle: saline): 253 % of control | T/C (dose: 6.0 mg/kg/injection, schedule: Q01DX001 (im), vehicle: water): 101 % of control | T/C (dose: 6.86 mg/kg/injection, schedule: Q01DX001 (iv), vehicle: saline): 151 % of control | T/C (dose: 8.0 mg/kg/injection, schedule: Q01DX001 (ip), vehicle: saline): 154 % of control and 169 % of control | T/C (dose: 8.0 mg/kg/injection, schedule: Q04DX003 (ip), vehicle: saline): 105 % of control | T/C (dose: 9.8 mg/kg/injection, schedule: Q01DX001 (iv), vehicle: saline): 195 % of control | T/C (dose: 14.0 mg/kg/injection, schedule: Q01DX001 (iv), vehicle: saline): 175 % of control and 333 % of control

Nc1ncnc2c1ncn2C1C=C(CO)C(O)C1O (centres undefined)
T/C [7]: 102 % of control | T/C [8]: 98 % of control | T/C [9]: 88 % of control | T/C (dose: 4.0 mg/kg/injection, schedule: Q01DX009 (ip), vehicle: saline): 95 % of control

Cc1nc(N)nc(N)c1-c1ccc(Cl)c(Cl)c1
T/C (dose: 0.31 mg/kg/injection, schedule: Q01DX009 (ip), vehicle: saline): 108 % of control | T/C (dose: 0.63 mg/kg/injection, schedule: Q01DX009 (ip), vehicle: saline): 109 % of control | T/C (dose: 1.25 mg/kg/injection, schedule: Q01DX009 (ip), vehicle: saline): 113 % of control | T/C (dose: 2.5 mg/kg/injection, schedule: Q01DX009 (ip), vehicle: saline): 120 % of control | T/C (dose: 5.0 mg/kg/injection, schedule: Q01DX009 (ip), vehicle: saline): 109 % of control

OCCNCCNc1ccnc2cc(Cl)ccc12
T/C [4]: 115 % of control | T/C (dose: 25.0 mg/kg/injection, schedule: Q01DX009 (ip), vehicle: saline): 94 % of control | T/C [5]: 107 % of control | T/C [6]: 98 % of control

CCN1CSC(=S)N(CC)C1
T/C [1]: 103 % of control | T/C [2]: 101 % of control | T/C [3]: 99 % of control
